Experimental data: patent publication US11192866B2, “Synthesis of tetracyclines and analogues thereof” (President and Fellows of Harvard College, priority 2004, dated 2021)

System: Gram-positive strains
Assay: Whole-cell antibacterial MIC assay (NCCLS serial dilution), Gram-positive strains
Format: cell-based
Conditions: each of the Gram-positive strains examined, including strains with resistance to tetracycline, methicillin, and vancomycin
Experimental: The efficiencies of the synthetic sequences have allowed for the preparation of sufficient quantities of each tetracycline analog for antibacterial testing using standard serial-dilution techniques (5-20 mg amounts). Minimum inhibitory concentrations (MICs) are reported for each analog in whole-cell antimicrobial assays using five Gram-positive and five Gram-negative organisms (FIGS. 18A to 18C).
Whole-cell antibacterial activity was determined according to methods recommended by the NCCLS (National Committee for Clinical Laboratory Standards. 2002. Methods for dilution antimicrobial susceptibility tests for bacteria that grow aerobically: approved standard-fifth edition. NCCLS document M100-S12. National Committee for Clinical Laboratory Standards. Wayne, Pa.; incorporated herein by reference). Test compounds were dissolved in dimethyl sulfoxide (DMSO) and the resulting solutions were diluted in water (1:10) to produce stock solutions with a final concentration of 256 μg tetracycline analog per mL. In a 96-well microtiter plate, 50-μL aliquots of stock solutions were diluted serially into cation-adjusted Mueller-Hinton broth (MHB; Becton-Dickinson, Cockeysville, Md.). Test organisms (50 μL aliquots of solutions […]) were then added to the appropriate wells of the microtiter plate. […] The MIC was the lowest concentration of compound determined to inhibit visible growth. […]

Structure (SMILES): CN(C)[C@@H]1C(O)=C(C(N)=O)C(=O)[C@@]2(O)C(O)=C3C(=O)c4c(cc5ccccc5c4O)C[C@H]3C[C@@H]12 [pentacycline derivative 6]
- antibacterial activity compared with tetracycline: activity equal to or greater than tetracycline
